Measurements as given in patent US7582300B2, “Modulation of gamma delta T cells to regulate airway hyperresponsiveness” (National Jewish Health, priority 1999, dated 2009).

Tests used:
γδ T cells = test: Stimulation of γδ T cells / γδ T cell hybridomas in vitro; assay type: cell-based; conditions: for stimulation of γδ T cell hybridomas: phospholipids tested by the inventors
αβ T cell hybridomas = test: Stimulation of αβ T cell hybridomas in vitro; assay type: cell-based

Row | Substance | stimulation of γδ T cell hybridomas (γδ T cells) | stimulation of αβ T cell hybridomas (αβ T cell hybridomas) | stimulation of γδ T cells by peptides (γδ T cells)
1 | Cardiolipin | selectively stimulates γδ T cell hybridomas | not αβ T cell hybridomas | –
2 | FALQLEL [SEQ ID NO:1] | – | – | stimulatory for γδ T cells
3 | FGLQLEL (listed as Mycobacterium leprae) [SEQ ID NO:2, peptide from mycobacterial HSP-60 protein (from M. leprae)] | – | – | stimulatory for γδ T cells
4 | phosphatidyl-glycerol | weakly stimulatory | – | –
